Laboratory results as given in publication PMC4744035, “In Vivo, In Vitro, and In Silico Characterization of Peptoids as Antimicrobial Agents” (PLoS ONE, 2016).
Converted amounts (≈) assume the structure as drawn. Like-named read-outs stand apart in the source and are kept apart here. Numbered stars: 1 amine (or outer) side, 2 acyl side, 3 side chain; on linkers, the order of the positions; unused ones are H or OH. Square brackets hold non-standard residues; d marks the D form. Peptide text beside a SMILES is read from it. X1 = CC(C)[C@H](C)N(CC(=O)[*:2])[*:1]; Nspe = C[C@H](NCC(=O)O)c1ccccc1; Nlys = NCCCCNCC(=O)O

Columns and labels:
B. subtilis ATCC 6633 = type: cell-based
In short: (§1)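 MICs determined by 2:1 serial broth microdilution in cation-adjusted Mueller-Hinton broth per CLSI M7-A6, using inoculum at 1 x 10^6 CFU/mL mixed 1:1 with peptoid solution. Three independent replicates, each with two parallel trials.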

E. coli ATCC 35218 = type: cell-based
In short: as §1

erythrocytes = experiment: Hemolytic activity (HD10/HD50); type: cell-based
Excerpt: Table 1 Characteristics of antimicrobial peptoids, screened for activity against B. subtilis and E. coli bacterial strains. | column: HD10 / HD50

E. faecalis ATCC29212 = experiment: microbe, parasite or virus in culture
In short: (§2)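 Modified broth microdilution in Mueller Hinton medium, polypropylene plates; agents serially diluted in 0.01% acetic acid with 0.2% BSA. Inoculum 2–7 x 10^5 CFU/mL from overnight culture, incubated overnight at 37°C. MIC taken as lowest concentration with no visible growth.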

P. maltophilia ATCC13637 = experiment: microbe, parasite or virus in culture
In short: as §2

P. aeruginosa 198 (MDR) = experiment: microbe, parasite or virus in culture
In short: as §2

S. aureus C623 (MRSA) = experiment: microbe, parasite or virus in culture
In short: as §2

E. faecalis F43559 (VRE) = experiment: microbe, parasite or virus in culture
In short: as §2

[1] = tested on: P. aeruginosa H1027 (MDR); experiment: microbe, parasite or virus in culture
In short: as §2

P. aeruginosa 9 (MDR) = experiment: microbe, parasite or virus in culture
In short: as §2

[2] = tested on: P. aeruginosa LES400 (MDR); experiment: microbe, parasite or virus in culture
In short: as §2

E. coli 64771 (ESBL) = experiment: microbe, parasite or virus in culture
In short: as §2

[3] = tested on: P. aeruginosa H103 (wild type); experiment: microbe, parasite or virus in culture
In short: as §2

E. coli 63103 (ESBL) = experiment: microbe, parasite or virus in culture
In short: as §2

[4] = tested on: E. cloacae 218R Class C β-lactamase; experiment: microbe, parasite or virus in culture
In short: as §2

[5] = tested on: K. pneumonia 63575 (ESBL); experiment: microbe, parasite or virus in culture
In short: as §2

[6] = tested on: K. pneumonia 61962 (ESBL); experiment: microbe, parasite or virus in culture
In short: as §2

[7] = tested on: P. aeruginosa H1030 (MDR); experiment: microbe, parasite or virus in culture; conditions: P. aeruginosa H1030 (MDR)
In short: as §2

E. faecalis W61950 (VRE) = experiment: microbe, parasite or virus in culture
In short: as §2

P. aeruginosa 213 (MDR) = experiment: microbe, parasite or virus in culture
In short: as §2

S. aureus ATCC25923 = experiment: microbe, parasite or virus in culture
In short: as §2

E. faecium mic80 (VRE) = experiment: microbe, parasite or virus in culture
In short: as §2

E. faecium T62764 (VRE) = experiment: microbe, parasite or virus in culture
In short: as §2

NIH 3T3 cells = experiment: Metabolic activity, MTS assay; type: cell-based, mouse
Protocol: NIH 3T3 mouse fibroblast cells were cultured in complete Dulbecco’s Modified Eagle’s Media. A peptoid solution plate (100 µL per well) was prepared by serial dilution of aqueous peptoid stock solutions in Hank’s balanced salt solution. A day-old cell monolayer was washed thoroughly with Hank’s balanced salt solution and replenished with 100 µL Hank’s balanced salt solution per well. Peptoid solutions were transferred onto the day-old cell monolayers, which contained approximately 5000 cells per well. […] The average of six replicate trials is reported.

Structure (SMILES) | MIC B. subtilis (B. subtilis ATCC 6633) | MIC E. coli (E. coli ATCC 35218) | MIC (E. faecalis ATCC29212; E. faecalis ATCC29212) | MIC [7] | HD10 (hemolytic activity) (erythrocytes) | HD50 (hemolytic activity) (erythrocytes) | ID50 (inhibitory dose, metabolic activity) (NIH 3T3 cells) | MIC (P. maltophilia ATCC13637; ATCC13637) | MIC (P. aeruginosa 198 (MDR); 198 (MDR)) | MIC (S. aureus C623 (MRSA); C623) | MIC (E. faecalis F43559 (VRE); F43559 (VRE)) | MIC ([1]; H1027 (MDR)) | MIC (P. aeruginosa 9 (MDR); 9 (MDR)) | MIC ([2]; LES400 (MDR)) | MIC (E. coli 64771 (ESBL); 64771 (ESBL)) | MIC ([3]; H103 (wild type)) | MIC (E. coli 63103 (ESBL); 63103 (ESBL)) | MIC ([4]; 218R Class C β-lactamase) | MIC [5] | MIC [6] | also measured
C[C@H](c1ccccc1)N(CC(N)=O)C(=O)CN(C(=O)CN(CCCCN)C(=O)CN(C(=O)CN(C(=O)CN(CCCCN)C(=O)CN(C(=O)CN(C(=O)CN(CCCCN)C(=O)CN(C(=O)CN(C(=O)CNCCCCN)[C@@H](C)c1ccccc1)[C@H](C)c1ccccc1)[C@@H](C)c1ccccc1)[C@H](C)c1ccccc1)[C@@H](C)c1ccccc1)[C@H](C)c1ccccc1)[C@@H](C)c1ccccc1 [1-Nrpe3,6,9,12, H-(NLys-Nspe-Nrpe)4-NH2] | 1.6 µM (≈ 2.91 µg/mL) | 6.3 µM (≈ 11.5 µg/mL) | 4 µg/mL (≈ 2.2 µM) | 8 µg/mL (≈ 4.4 µM) |  |  |  |  |  |  |  |  |  |  |  |  |  |  |  |  | HD10 (hemolytic activity) (erythrocytes; erythrocytes, first value of HD10 / HD50 cell): 16; HD50 (hemolytic activity) (erythrocytes; erythrocytes, second value of HD10 / HD50 cell): 67; MIC (P. maltophilia ATCC13637; P. maltophilia ATCC13637): 2 µg/mL (≈ 1.1 µM); MIC (P. aeruginosa 198 (MDR); P. aeruginosa 198 (MDR)): 8 µg/mL (≈ 4.4 µM); MIC (S. aureus C623 (MRSA); S. aureus C623 (MRSA)): 4 µg/mL (≈ 2.2 µM); MIC (E. faecalis F43559 (VRE); E. faecalis F43559 (VRE)): 4 µg/mL (≈ 2.2 µM); MIC ([1]; P. aeruginosa H1027 (MDR)): 4 µg/mL (≈ 2.2 µM); MIC (P. aeruginosa 9 (MDR); P. aeruginosa 9 (MDR)): 32 µg/mL (≈ 17.6 µM); MIC ([2]; P. aeruginosa LES400 (MDR)): 4 µg/mL (≈ 2.2 µM); MIC (E. coli 64771 (ESBL); E. coli 64771 (ESBL)): 4 µg/mL (≈ 2.2 µM); MIC ([3]; P. aeruginosa H103 (wild type)): 8 µg/mL (≈ 4.4 µM); MIC (E. coli 63103 (ESBL); E. coli 63103 (ESBL)): 4 µg/mL (≈ 2.2 µM); MIC ([4]; E. cloacae 218R Class C β-lactamase): 4 µg/mL (≈ 2.2 µM); MIC ([5]; K. pneumonia 63575 (ESBL)): 16 µg/mL (≈ 8.79 µM); MIC ([6]; K. pneumonia 61962 (ESBL)): 8 µg/mL (≈ 4.4 µM); MIC (E. faecalis W61950 (VRE); E. faecalis W61950 (VRE)): 8 µg/mL (≈ 4.4 µM); MIC (P. aeruginosa 213 (MDR); P. aeruginosa 213 (MDR)): 8 µg/mL (≈ 4.4 µM); MIC (S. aureus ATCC25923; S. aureus ATCC25923): 4 µg/mL (≈ 2.2 µM); MIC (E. faecium mic80 (VRE); E. faecium mic80 (VRE)): 4 µg/mL (≈ 2.2 µM); MIC (E. faecium T62764 (VRE); E. faecium T62764 (VRE)): 1 µg/mL (≈ 0.55 µM)
CC(C)[C@H](C)N(CC(=O)N(CC(=O)N(CCCCN)CC(=O)N(CC(=O)N(CC(=O)N(CCCCN)CC(=O)N(CC(=O)N(CC(=O)N(CCCCN)CC(=O)N(CC(=O)N(CC(N)=O)[C@@H](C)c1ccccc1)[C@@H](C)C(C)C)[C@@H](C)c1ccccc1)[C@@H](C)C(C)C)[C@@H](C)c1ccccc1)[C@@H](C)C(C)C)[C@@H](C)c1ccccc1)C(=O)CNCCCCN [1-Nsdp2.5.8.11, H-(NLys-Nsdp-Nspe)4-NH2] (H-[Nlys][X1][Nspe][Nlys][X1][Nspe][Nlys][X1][Nspe][Nlys][X1][Nspe]-NH2) | 0.78 µM (≈ 1.31 µg/mL) | 12.5 µM (≈ 21 µg/mL) | 8 µg/mL (≈ 4.75 µM) | 16 µg/mL (≈ 9.51 µM) | 111 | > 200 | 20 µM | 1 µg/mL (≈ 0.594 µM) | 32 µg/mL (≈ 19 µM) | 8 µg/mL (≈ 4.75 µM) | 32 µg/mL (≈ 19 µM) | 4 µg/mL (≈ 2.38 µM) | 256 µg/mL (≈ 152 µM) | 16 µg/mL (≈ 9.51 µM) | 8 µg/mL (≈ 4.75 µM) | 8 µg/mL (≈ 4.75 µM) | 16 µg/mL (≈ 9.51 µM) | 16 µg/mL (≈ 9.51 µM) | 32 µg/mL (≈ 19 µM) | 64 µg/mL (≈ 38 µM) | MIC (E. faecalis W61950 (VRE); W61950 (VRE)): 32 µg/mL (≈ 19 µM); MIC (P. aeruginosa 213 (MDR); 213 (MDR)): 16 µg/mL (≈ 9.51 µM); MIC (S. aureus ATCC25923; ATCC25923): 8 µg/mL (≈ 4.75 µM); MIC (E. faecium mic80 (VRE); mic80 (VRE)): 4 µg/mL (≈ 2.38 µM); MIC (E. faecium T62764 (VRE); T62764 (VRE)): 2 µg/mL (≈ 1.19 µM)
CC(C)[C@H](C)N(CC(N)=O)C(=O)CN(C(=O)CN(CCCCN)C(=O)CN(C(=O)CN(C(=O)CN(CCCCN)C(=O)CN(C(=O)CN(C(=O)CN(CCCCN)C(=O)CN(C(=O)CN(C(=O)CNCCCCN)[C@@H](C)C(C)C)[C@@H](C)C(C)C)[C@@H](C)C(C)C)[C@@H](C)C(C)C)[C@@H](C)C(C)C)[C@@H](C)C(C)C)[C@@H](C)C(C)C [Peptoid 1-Nsdpall, H-(NLys-Nsdp-Nsdp)4-NH2] | 0.78 µM (≈ 1.21 µg/mL) | 25 µM (≈ 38.7 µg/mL) |  | 32 µg/mL (≈ 20.7 µM) | >200 / >200 | >200 / >200 | 64 µM | 1 µg/mL (≈ 0.646 µM) | 128 µg/mL (≈ 82.7 µM) | 8 µg/mL (≈ 5.17 µM) | 128 µg/mL (≈ 82.7 µM) | 4 µg/mL (≈ 2.59 µM) | 256 µg/mL (≈ 165 µM) | 32 µg/mL (≈ 20.7 µM) | 16 µg/mL (≈ 10.3 µM) | 32 µg/mL (≈ 20.7 µM) | 64 µg/mL (≈ 41.4 µM) | 32 µg/mL (≈ 20.7 µM) | 128 µg/mL (≈ 82.7 µM) | 128 µg/mL (≈ 82.7 µM) | MIC (E. faecalis ATCC29212; ATCC29212): 64 µg/mL (≈ 41.4 µM); MIC (E. faecalis W61950 (VRE); W61950 (VRE)): 128 µg/mL (≈ 82.7 µM); MIC (P. aeruginosa 213 (MDR); 213 (MDR)): 64 µg/mL (≈ 41.4 µM); MIC (S. aureus ATCC25923; ATCC25923): 16 µg/mL (≈ 10.3 µM); MIC (E. faecium mic80 (VRE); mic80 (VRE)): 16 µg/mL (≈ 10.3 µM); MIC (E. faecium T62764 (VRE); T62764 (VRE)): 4 µg/mL (≈ 2.59 µM)
